# Measured values taken from paper PMC8547461, “An Intracellular Sensing and Signal Transduction System That Regulates the Metabolism of Polycyclic Aromatic Hydrocarbons in Bacteria” (mSystems, 2021).
# “And” between values parts separate entries of the source, which are not always exact repeats. Identical values can stand only once. Like-named read-outs stand apart in the source and are kept apart here.
# Columns and labels:
# PdgC [1] = target: T1, PdgC (Cycloclasticus sp. P1, UniProt K0C005); experiment: SPR binding of PAHs to PdgC sensor chip; set-up: species or system Cycloclasticus sp. strain P1; details: wild-type PdgC; for Kd: 20°C, read-out: affinity constant (KD)
# T1 sequence (K0C005 1-445): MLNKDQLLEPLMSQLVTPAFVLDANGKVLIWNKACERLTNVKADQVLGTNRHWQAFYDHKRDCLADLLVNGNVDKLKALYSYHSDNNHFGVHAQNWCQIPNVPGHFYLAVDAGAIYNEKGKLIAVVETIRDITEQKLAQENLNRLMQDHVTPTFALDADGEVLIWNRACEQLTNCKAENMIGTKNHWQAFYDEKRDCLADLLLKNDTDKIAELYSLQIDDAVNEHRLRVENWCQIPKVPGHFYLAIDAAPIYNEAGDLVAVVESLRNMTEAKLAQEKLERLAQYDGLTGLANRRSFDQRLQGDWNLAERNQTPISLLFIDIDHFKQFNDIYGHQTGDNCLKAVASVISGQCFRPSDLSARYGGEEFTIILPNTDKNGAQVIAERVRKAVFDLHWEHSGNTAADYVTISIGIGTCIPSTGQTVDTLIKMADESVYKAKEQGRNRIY
# Protocol: (§1) The immobilization of the PdgC PAS domain on the sensor surface was carried out as previously described ([68]). Briefly, PdgC was diluted in 10 mM sodium acetate (pH 5.5) and immobilized on a CM5 sensor chip using the amine coupling method by following the manufacturer’s protocol. SPR measurements were performed using a Biacore T200 system (GE Healthcare, Sweden).
# PAH compounds were diluted in running buffer (phosphate-buffered saline [PBS] containing 5% DMSO) to a concentration of 50 μM. Running buffer alone (PBS containing 5% DMSO, without PAHs) served as the negative control. All solutions were then injected into the PdgC sensor surface for 120 s at a flow rate of 30 μl/min. Sensograms of these PAHs were recorded and analyzed. […] The association and dissociation times were both 120 s. Affinity fitting (determination of the affinity constant, KD) was performed using Biacore T200 evaluation software with a 1:1 binding mode.
# [2] = tested on: wild-type Cycloclasticus sp. strain P1; experiment: Intracellular c-di-GMP quantification (HPLC-MS/MS), wild type; type: cell-based; details: for intracellular concentration of c-di-GMP vs PAH-absent control: wild-type strain P1, after exposure to PAH, 48 h
# Protocol: Intracellular c-di-GMP levels were determined using high-performance liquid chromatography tandem mass spectrometry (HPLC-MS/MS), as previously described ([66]), with the following modifications. Strain P1 cells, obtained from OD-adjusted overnight precultures, were inoculated onto various PAH substrates and grown for 48 h in triplicate. Bacterial pellets were resuspended in 0.2% ice-cold formaldehyde at a concentration of 300 mg wet weight/ml, incubated on ice for 10 min, and then centrifuged at 10,000 × g for 15 min. Each pellet was then resuspended in […] of H2O. After extracting nucleotides using ethanol extraction ([67]), samples were dried under a vacuum, reconstituted in […] of H2O via vigorous vortexing and sonication for 5 min, and finally centrifuged for 15 min at 10,000 × g. The supernatants were analyzed at 55°C using an Agilent 1200 HPLC system with a C18 ACE 3 AQ 150- by 2.1-mm column and the corresponding column guard. The mobile phase consisted of 0.1% formic acid run in an H2O-acetonitrile gradient at a flow rate of 300 μl/min, reaching 50% acetonitrile in 15 min. MS analysis was then performed via negative ion electrospray from the Agilent HPLC system into a Bruker HCT Plus ion trap in multiple reaction mode. Using SmartFrag (HyStar software), the trap was set to isolate fragment ions at m/z 688.9 (with a monitored mass range of m/z 450 to 700) from a full scan. Data Analysis v3.3 was used to interrogate the acquisitions, and the extracted ion chromatograms of m/z 538 were produced from the negative-ion MS/MS of m/z 688.9. The retention times and peak spectra were matched to the injected standard (c-di-GMP; Biolog LifeScience Institute, Bremen, Germany) at intervals throughout the run. Peak areas and relative c-di-GMP levels were normalized to the levels obtained with the injected standard. A solution of 1 mg/ml c-di-GMP standard in water was diluted to prepare the spiking solutions with 100 ng/ml, 200 ng/ml, 300 ng/ml, 400 ng/ml, 500 ng/ml, 600 ng/ml, 700 ng/ml, 800 ng/ml, and 900 ng/ml c-di-GMP standard. Extractions and quantifications were all performed in triplicate. The amount of c-di-GMP detected in the blank was subtracted from that detected in the spiked calibrants, and the analysis was calibrated using a linear regression (r^2 = 0.993). To obtain an estimate of c-di-GMP concentration per unit of cellular biomass, the c-di-GMP concentration was divided by the measured OD600 of the original culture.
# DPR-1 [3] = experiment: Expression of dpr-1 in wild-type P1 (real-time PCR); details: wild-type strain P1 grown on PAH, control sodium acetate
# Protocol: Cycloclasticus sp. strain P1 and mutant strain PARP1 were grown in 200 ml of MMC medium containing the appropriate antibiotics, with sodium acetate or PAHs as the carbon source, in 500 ml Erlenmeyer flasks at 28°C on a rotary shaker (200 rpm). Bacterial growth was monitored based on optical density (OD600). Total RNA was extracted using the RNeasy minikit (Qiagen, Valencia, CA, USA) according to the manufacturer’s protocols and subsequently treated with DNase I (Invitrogen, Carlsbad, CA, USA). The RNA yield was estimated using a NanoDrop UV spectrometer (Thermo Scientific, Wilmington, DE, USA). Approximately 4 μg of RNA was reverse transcribed using 20 ng of random primers (Invitrogen, Carlsbad, CA, USA) and PrimeScript reverse transcriptase (TaKaRa, Dalian, China). Control reactions were performed in the absence of reverse transcriptase to verify the absence of genomic DNA. To calculate the number of viable bacteria present, 16S rRNA gene copy numbers were determined using quantitative real-time PCR.
# Quantitative real-time PCRs were performed using IQ SYBR green Supermix and the IQ5 multicolor real-time PCR detection system (Bio-Rad, CA, USA). The reactions were performed in 96-well optical plates sealed with optical caps. […] Fluorescence data were acquired at the end of the elongation step. […]
# The samples were quantified using a calibration curve that was generated in parallel. A standard quantification curve was generated for each of the tested genes based on a serial dilution of a known amount of target DNA (from 10 to 10^6 copies) utilizing the optimal PCR conditions described above. […] Based on the calibration curve (determined using IQ^5 multicolor real-time PCR detection system software), the initial copy number of each target mRNA was calculated for each sample. The calculated values were normalized to the expression of the 16S rRNA gene to yield the number of copies of each mRNA transcript in 1,000 wild-type Cycloclasticus sp. strain P1 or mutant cells.
# DPR-2 [4] = experiment: Expression of dpr-2 in wild-type P1 (real-time PCR); details: wild-type strain P1 grown on PAH, control sodium acetate
# Protocol: Cycloclasticus sp. strain P1 and mutant strain PARP1 were grown in 200 ml of MMC medium containing the appropriate antibiotics, with sodium acetate or PAHs as the carbon source, in 500 ml Erlenmeyer flasks at 28°C on a rotary shaker (200 rpm). Bacterial growth was monitored based on optical density (OD600). Total RNA was extracted using the RNeasy minikit (Qiagen, Valencia, CA, USA) according to the manufacturer’s protocols and subsequently treated with DNase I (Invitrogen, Carlsbad, CA, USA). The RNA yield was estimated using a NanoDrop UV spectrometer (Thermo Scientific, Wilmington, DE, USA). […] To calculate the number of viable bacteria present, 16S rRNA gene copy numbers were determined using quantitative real-time PCR.
# Quantitative real-time PCRs were performed using IQ SYBR green Supermix and the IQ5 multicolor real-time PCR detection system (Bio-Rad, CA, USA). […] Fluorescence data were acquired at the end of the elongation step. […]
# The samples were quantified using a calibration curve that was generated in parallel. A standard quantification curve was generated for each of the tested genes based on a serial dilution of a known amount of target DNA (from 10 to 10^6 copies) utilizing the optimal PCR conditions described above. […]
# [5] = tested on: PdgC^L68A/V73A/K77G/I115G; experiment: SPR binding of PAHs to four-site mutated PdgC sensor chip; set-up: species or system Cycloclasticus sp. strain P1; details: four-site mutation PdgC; for Kd: read-out: affinity constant (KD)
# Protocol: as §1
# PAH compounds were diluted in running buffer (phosphate-buffered saline [PBS] containing 5% DMSO) to a concentration of 50 μM. Running buffer alone (PBS containing 5% DMSO, without PAHs) served as the negative control. All solutions were then injected into the PdgC sensor surface for 120 s at a flow rate of 30 μl/min. Sensograms of these PAHs were recorded and analyzed. Analytes were injected through the reference and active channels at a flow rate of 30 μl/min. The association and dissociation times were both 120 s. Affinity fitting (determination of the affinity constant, KD) was performed using Biacore T200 evaluation software with a 1:1 binding mode.
# PdgC [6] = target: T1, PdgC; set-up: method as in PMID 30171002; details: in the presence of PAH; cited from earlier work
# DPR-2 [7] = target: DPR-2 (Cycloclasticus sp. P1, UniProt K0C733); experiment: SPR binding of cyclic nucleotides to DPR-2 sensor chip; details: for Ka: DPR-2
# Sequence of DPR-2 (Cycloclasticus sp. P1, UniProt K0C733) (K0C733 1-238): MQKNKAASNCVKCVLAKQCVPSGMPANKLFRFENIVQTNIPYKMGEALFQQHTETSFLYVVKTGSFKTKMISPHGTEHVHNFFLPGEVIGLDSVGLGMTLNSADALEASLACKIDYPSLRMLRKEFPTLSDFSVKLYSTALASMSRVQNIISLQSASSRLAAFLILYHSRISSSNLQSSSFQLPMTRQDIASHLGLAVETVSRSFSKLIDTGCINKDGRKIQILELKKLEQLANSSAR
# DPR-1 [8] = target: DPR-1 (Cycloclasticus sp. P1, UniProt K0C5A9); experiment: SPR binding of cyclic nucleotides to DPR-1 sensor chip
# Sequence of DPR-1 (Cycloclasticus sp. P1, UniProt K0C5A9) (K0C5A9 1-242): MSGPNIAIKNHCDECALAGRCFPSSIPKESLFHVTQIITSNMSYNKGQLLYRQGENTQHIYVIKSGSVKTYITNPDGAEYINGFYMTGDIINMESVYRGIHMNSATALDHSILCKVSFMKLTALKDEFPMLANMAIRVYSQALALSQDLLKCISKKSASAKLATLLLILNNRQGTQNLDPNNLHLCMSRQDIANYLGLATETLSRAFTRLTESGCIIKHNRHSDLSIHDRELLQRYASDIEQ
# [9] = tested on: DPR-1 (Cycloclasticus sp. strain P1); experiment: SPR; details: biotin-DNA on streptavidin chip, DPR 0-100 nM, with or without 80 nM c-di-GMP, 25 C, 30 ul/min, 150 s association/150 s dissociation, 1:1 fit, buffer …
# PdgC [10] = target: T1, PdgC; experiment: PdgC enzymatic activity assay (Enzchek pyrophosphate assay); details: PAH 2 μM, inorganic pyrophosphate assay
# Protocol: Assays were performed using the Enzchek pyrophosphate assay kit (Invitrogen). […] In addition, the pyrophosphatase in the kit was replaced by 0.4 U/ml pyrophosphatase (Sigma). […] The accumulation of phosphate was monitored over time at OD360.
# DPR-2 [11] = experiment: SPR (Biacore T200) with DPR-1, DPR-2 or their quadruple mutants immobilized on CM5 chips and cyclic nucleotides injected in 20 mM MOPS pH 8.0, 300 mM NaCl, 0.005% P20, 0.1 mg/ml BSA at 30 ul/min; 20 °C in results, 25 °C in methods; 1:1 binding fit (legend: steady-state affinity model).; details: read-out: affinity constant (KD); n = 3
# Protocol: (§2) The interactions between DPR and secondary message molecules, including c-di-GMP, c-di-AMP, and cyclic AMP (cAMP), were examined using SPR assays.
# (§3) SPR data for the binding of c-di-GMP to DPR-1 or DPR-2 (A) and DPR-1^L93A/D94A/T101A/L102A or DPR-2^L91A/D92A/T99A/L100A (B). […] The values of the affinity constant (KD) were calculated by global fitting, using a steady-state affinity model. Data were representatives of three independent experiments.
# (§4) The values of the affinity constant (KD) were calculated by global fitting, using a steady-state affinity model. Data were representative of three independent experiments.
# (§5) To reconfirm this binding model, site mutations were introduced into DPR-2 (or DPR-1) at L91/A91, D92/A92, T99/A99, and L100/A100, resulting in a quadruple mutated protein, DPR-2^L91A/D92A/T99A/L100A (or DPR-1^L93A/D94A/T101A/L102A). […]
# (§6) We covalently immobilized 50 μg/ml DPR-1 and DPR-2 in 10 mM sodium acetate buffer (pH 5.5) onto separate CM5 sensor chips (GE Healthcare), using standard primary amine coupling procedures. […] After double referencing by subtracting the signal of the reference flow cell and the curve of the buffer injection, KD values for c-di-GMP binding to the DPRs immobilized on the sensor chip surface were calculated using reference points at the end of the association phase. Values were calculated with Biacore T200 evaluation software using a 1:1 binding mode.
# DPR-1 [12] = experiment: as above; details: read-out: affinity constant (KD); n = 3
# Protocol: as §2, §3, §4, §5, §6
# [13] = tested on: DPR-2 (Cycloclasticus sp. strain P1); experiment: SPR; details: biotin-DNA on streptavidin chip, DPR 0-100 nM, with or without 80 nM c-di-GMP, 25 C, 30 ul/min, 150 s association/150 s dissociation, 1:1 fit, buffer …
# [14] = no c-di-GMP, value order assumed as in Fig. 7 legend
molecule,measurement,setting,value
c1ccc2ccccc2c1 [naphthalene],Ka,PdgC [1],5.51e5 M^-1S^-1
same,intracellular concentration of c-di-GMP vs PAH-absent control,[2],8- to 10 fold
same,DPR-1 expression,DPR-1 [3],slightly upregulated
same,DPR-2 expression,DPR-2 [4],slightly upregulated
same,Ka,[5],7.6e2 M-1S-1
same,Kd,[5]; listed as Naphthalene,78000 nM
same,Kd,[5],~100000 nM
same,pdgC upregulation,PdgC [6],6.5- to 8.0 fold
"Nc1nc2c(ncn2C2OC3COP(=O)(O)OC4C(COP(=O)(O)OC3C2O)OC(n2cnc3c(=O)[nH]c(N)nc32)C4O)c(=O)[nH]1 (stereo not shown) [c-di-GMP, cyclic dimeric GMP]",Ka,DPR-2 [7],5.41e5 M^-1S^-1
same,Kd,"DPR-2 [7]; affinity constant (KD), DPR-2, 20°C",40 nM and ~100 nM
same,Ka,DPR-1 [8]; DPR-1,3.94e5 M^-1S^-1
same,Kd,DPR-1 [8]; DPR-1,1.09e-2 S^-1
PQ91_0869,Kd,[9],3.3 nM
same,Kd,[9]; no c-di-GMP,690 nM
PQ91_0870-0877,Kd,[9],0.62 nM
same,Kd,"[9]; no c-di-GMP, text prints 0.73 x 10^6 M, exponent sign evidently lost",730 nM
c1cc2ccc3cccc4ccc(c1)c2c34 [pyrene],Ka,PdgC [1],4.12e5 M^-1S^-1
same,Kd,PdgC [1],46 nM
same,PdgC activity in vitro,PdgC [10],active only in the presence of PAHs
same,c-di-GMP production higher than that caused by naphthalene or phenanthrene,[2]; wild-type strain P1,30 to 35%
same,intracellular concentration of c-di-GMP vs PAH-absent control,[2],8- to 10 fold
same,DPR-1 expression,DPR-1 [3],significantly upregulated
same,Kd,[5]; listed as Pyrene,100000 nM
same,Kd,[5],~100000 nM
same,pdgC upregulation,PdgC [6],6.5- to 8.0 fold
"Nc1ncnc2c1ncn2[C@@H]1O[C@@H]2COP(=O)(O)O[C@H]3[C@@H](O)[C@H](n4cnc5c(N)ncnc54)O[C@@H]3COP(=O)(O)O[C@H]2[C@H]1O [c-di-AMP, cyclic dimeric AMP]",Kd,DPR-2 [11],2600 nM
same,Kd,DPR-1 [12],4100 nM
Nc1ncnc2c1ncn2[C@@H]1O[C@@H]2COP(=O)(O)O[C@H]3[C@@H](O)[C@H](n4cnc5c(N)ncnc54)O[C@@H]3COP(=O)(O)O[C@H]2[C@H]1O [c-di-AMP],Ka,DPR-2 [7],6.16e3 M^-1S^-1
same,Ka,DPR-1 [8]; DPR-1,6.58e3 M^-1S^-1
same,Kd,DPR-1 [8]; DPR-1,2.73e-2 S^-1
PQ91_2227-2224,Kd,[13],0.71 nM
same,Kd,[13]; [14],620 nM
c1ccc2c(c1)ccc1ccccc12 [phenanthrene],Kd,PdgC [1],46 nM
same,PdgC activity in vitro,PdgC [10],active only in the presence of PAHs
same,intracellular concentration of c-di-GMP vs PAH-absent control,[2],8- to 10 fold
same,DPR-1 expression,DPR-1 [3],slightly upregulated
same,DPR-2 expression,DPR-2 [4],slightly upregulated
same,Kd,[5]; listed as Phenanthrene,43000 nM
same,Kd,[5],~100000 nM
same,pdgC upregulation,PdgC [6],6.5- to 8.0 fold
PQ91_2244-2242,Kd,[13],6.4 nM
same,Kd,[13]; [14],630 nM
PQ91_2220-2218,Kd,[13],0.59 nM
same,Kd,[13]; [14],780 nM
"Nc1ncnc2c1ncn2[C@@H]1O[C@@H]2COP(=O)(O)O[C@H]2[C@H]1O [cAMP, cyclic AMP]",Ka,DPR-2 [7],5.33e3 M^-1S^-1
same,Kd,"DPR-2 [7]; read-out: affinity constant (KD), DPR-2, 20°C",3500 nM
same,Ka,DPR-1 [8]; DPR-1,4.15e3 M^-1S^-1
same,Kd,DPR-1 [8]; DPR-1,1.35e-2 S^-1
same,Kd,"DPR-1 [8]; read-out: affinity constant (KD), DPR-1, 20°C",3300 nM
